Assay: xn = mol fraction of the nth substance listed
Conditions: 101 kPa, Liquid; for electrical conductivity: Conductivity Meter Jenco 3107; for viscosity: Cone and plate viscometry; for mass density: Vibrating tube method

CC1COC(=O)O1 (centres undefined) [4-methyl-1,3-dioxolan-2-one] + CCCC[n+]1ccn(C)c1.O=S(=O)([N-]S(=O)(=O)C(F)(F)F)C(F)(F)F
Conditions	electrical conductivity [S/m]	mass density [kg/m3]	viscosity [mPa·s]
293.15 K, x2 = 0	–	–	2.86
293.15 K, x2 = 0.0146	–	1216.01	–
293.15 K, x2 = 0.0296	–	1226.83	–
293.15 K, x2 = 0.0453	–	1237.53	–
293.15 K, x2 = 0.0502	0.792	–	–
293.15 K, x2 = 0.0616	–	1247.91	–
293.15 K, x2 = 0.0732	–	1254.92	–
293.15 K, x2 = 0.0997	–	1269.69	–
293.15 K, x2 = 0.1	–	–	4.74
293.15 K, x2 = 0.1004	0.92	–	–
293.15 K, x2 = 0.2001	1.08	–	–
293.15 K, x2 = 0.2002	–	–	7.21
293.15 K, x2 = 0.2004	–	1314.48	–
293.15 K, x2 = 0.3002	0.938	–	–
293.15 K, x2 = 0.3007	–	–	10.74
293.15 K, x2 = 0.3081	–	1348.61	–
293.15 K, x2 = 0.3998	–	–	14.73
293.15 K, x2 = 0.4004	–	1370.63	–
293.15 K, x2 = 0.4005	0.814	–	–
293.15 K, x2 = 0.5004	–	–	20.17
293.15 K, x2 = 0.5007	0.752	–	–
293.15 K, x2 = 0.5021	–	1389.4	–
293.15 K, x2 = 0.5839	–	1401.58	–
293.15 K, x2 = 0.6002	–	–	26.37
293.15 K, x2 = 0.6003	0.669	–	–
293.15 K, x2 = 0.6902	–	1414.42	–
293.15 K, x2 = 0.6979	–	–	33.56
293.15 K, x2 = 0.6989	0.578	–	–
293.15 K, x2 = 0.7989	–	1424.99	–
293.15 K, x2 = 0.8001	0.497	–	–
293.15 K, x2 = 0.8015	–	–	42.09
293.15 K, x2 = 0.8959	0.422	–	50.34
293.15 K, x2 = 0.898	–	1432.81	–
298.15 K, x2 = 0	–	–	2.65
298.15 K, x2 = 0.0146	–	1210.26	–
298.15 K, x2 = 0.0296	–	1221.14	–
298.15 K, x2 = 0.0453	–	1231.8	–
298.15 K, x2 = 0.0502	0.899	–	–
298.15 K, x2 = 0.0616	–	1242.22	–
298.15 K, x2 = 0.0732	–	1249.22	–
298.15 K, x2 = 0.0997	–	1264.08	–
298.15 K, x2 = 0.1	–	–	4.29
298.15 K, x2 = 0.1004	1.02	–	–
298.15 K, x2 = 0.2001	1.21	–	–
298.15 K, x2 = 0.2002	–	–	6.43
298.15 K, x2 = 0.2004	–	1308.99	–
298.15 K, x2 = 0.3002	1.06	–	–
298.15 K, x2 = 0.3007	–	–	9.27
298.15 K, x2 = 0.3081	–	1343.32	–
298.15 K, x2 = 0.3998	–	–	12.6
298.15 K, x2 = 0.4004	–	1365.43	–
298.15 K, x2 = 0.4005	0.924	–	–
298.15 K, x2 = 0.5004	–	–	17.01
298.15 K, x2 = 0.5007	0.855	–	–
298.15 K, x2 = 0.5021	–	1384.34	–
298.15 K, x2 = 0.5839	–	1396.54	–
298.15 K, x2 = 0.6002	–	–	21.71
298.15 K, x2 = 0.6003	0.761	–	–
298.15 K, x2 = 0.6902	–	1409.46	–
298.15 K, x2 = 0.6979	–	–	27.64
298.15 K, x2 = 0.6989	0.667	–	–
298.15 K, x2 = 0.7989	–	1420.01	–
298.15 K, x2 = 0.8001	0.581	–	–
298.15 K, x2 = 0.8015	–	–	34.76
298.15 K, x2 = 0.8959	0.49	–	40.95
298.15 K, x2 = 0.898	–	1427.78	–
303.15 K, x2 = 0	–	–	2.44
303.15 K, x2 = 0.0146	–	1205.11	–
303.15 K, x2 = 0.0296	–	1216.01	–
303.15 K, x2 = 0.0453	–	1226.7	–
303.15 K, x2 = 0.0502	0.963	–	–
303.15 K, x2 = 0.0616	–	1237.2	–
303.15 K, x2 = 0.0732	–	1244.2	–
303.15 K, x2 = 0.0997	–	1259.1	–
303.15 K, x2 = 0.1	–	–	3.84
303.15 K, x2 = 0.1004	1.16	–	–
303.15 K, x2 = 0.2001	1.35	–	–
303.15 K, x2 = 0.2002	–	–	5.81
303.15 K, x2 = 0.2004	–	1303.96	–
303.15 K, x2 = 0.3002	1.21	–	–
303.15 K, x2 = 0.3007	–	–	8.07
303.15 K, x2 = 0.3081	–	1338.4	–
303.15 K, x2 = 0.3998	–	–	10.8
303.15 K, x2 = 0.4004	–	1360.5	–
303.15 K, x2 = 0.4005	1.07	–	–
303.15 K, x2 = 0.5004	–	–	14.41
303.15 K, x2 = 0.5007	0.963	–	–
303.15 K, x2 = 0.5021	–	1379.5	–
303.15 K, x2 = 0.5839	–	1391.7	–
303.15 K, x2 = 0.6002	–	–	18.4
303.15 K, x2 = 0.6003	0.86	–	–
303.15 K, x2 = 0.6902	–	1404.6	–
303.15 K, x2 = 0.6979	–	–	22.9
303.15 K, x2 = 0.6989	0.764	–	–
303.15 K, x2 = 0.7989	–	1415.1	–
303.15 K, x2 = 0.8001	0.665	–	–
303.15 K, x2 = 0.8015	–	–	28.81
303.15 K, x2 = 0.8959	0.563	–	33.59
303.15 K, x2 = 0.898	–	1422.88	–
308.15 K, x2 = 0	–	–	2.23
308.15 K, x2 = 0.0146	–	1199.79	–
308.15 K, x2 = 0.0296	–	1210.69	–
308.15 K, x2 = 0.0453	–	1221.41	–
308.15 K, x2 = 0.0502	1.05	–	–
308.15 K, x2 = 0.0616	–	1231.88	–
308.15 K, x2 = 0.0732	–	1238.89	–
308.15 K, x2 = 0.0997	–	1253.78	–
308.15 K, x2 = 0.1	–	–	3.51
308.15 K, x2 = 0.1004	1.3	–	–
308.15 K, x2 = 0.2001	1.51	–	–
308.15 K, x2 = 0.2002	–	–	5.1
308.15 K, x2 = 0.2004	–	1298.88	–
308.15 K, x2 = 0.3002	1.36	–	–
308.15 K, x2 = 0.3007	–	–	7.11
308.15 K, x2 = 0.3081	–	1333.39	–
308.15 K, x2 = 0.3998	–	–	9.42
308.15 K, x2 = 0.4004	–	1355.48	–
308.15 K, x2 = 0.4005	1.22	–	–
308.15 K, x2 = 0.5004	–	–	12.36
308.15 K, x2 = 0.5007	1.1	–	–
308.15 K, x2 = 0.5021	–	1374.5	–
308.15 K, x2 = 0.5839	–	1386.81	–
308.15 K, x2 = 0.6002	–	–	15.75
308.15 K, x2 = 0.6003	0.972	–	–
308.15 K, x2 = 0.6902	–	1399.67	–
308.15 K, x2 = 0.6979	–	–	19.44
308.15 K, x2 = 0.6989	0.859	–	–
308.15 K, x2 = 0.8001	0.755	–	–
308.15 K, x2 = 0.8015	–	–	24.1
308.15 K, x2 = 0.8959	0.642	–	27.95

— the NIST ThermoML archive (doi:10.1016/j.jct.2013.08.034)
